Measured values reported in US5684026A, “Aminocyclopentane derivative” (priority 1994, dated 1997).
Like-named read-outs stand apart in the source and are kept apart here.

Key:
Type in all cases: biochemical
[1] = target: T1, α-glucosidase I (Baker's yeast) (Saccharomyces cerevisiae, UniProt P53008); experiment: Inhibitory activity on α-glucosidase I (Ki)
T1 construct: made in house; host or cells: Baker's yeast (native enzyme, prepared by the cited method)
T1 sequence (P53008 25-833 limits assumed): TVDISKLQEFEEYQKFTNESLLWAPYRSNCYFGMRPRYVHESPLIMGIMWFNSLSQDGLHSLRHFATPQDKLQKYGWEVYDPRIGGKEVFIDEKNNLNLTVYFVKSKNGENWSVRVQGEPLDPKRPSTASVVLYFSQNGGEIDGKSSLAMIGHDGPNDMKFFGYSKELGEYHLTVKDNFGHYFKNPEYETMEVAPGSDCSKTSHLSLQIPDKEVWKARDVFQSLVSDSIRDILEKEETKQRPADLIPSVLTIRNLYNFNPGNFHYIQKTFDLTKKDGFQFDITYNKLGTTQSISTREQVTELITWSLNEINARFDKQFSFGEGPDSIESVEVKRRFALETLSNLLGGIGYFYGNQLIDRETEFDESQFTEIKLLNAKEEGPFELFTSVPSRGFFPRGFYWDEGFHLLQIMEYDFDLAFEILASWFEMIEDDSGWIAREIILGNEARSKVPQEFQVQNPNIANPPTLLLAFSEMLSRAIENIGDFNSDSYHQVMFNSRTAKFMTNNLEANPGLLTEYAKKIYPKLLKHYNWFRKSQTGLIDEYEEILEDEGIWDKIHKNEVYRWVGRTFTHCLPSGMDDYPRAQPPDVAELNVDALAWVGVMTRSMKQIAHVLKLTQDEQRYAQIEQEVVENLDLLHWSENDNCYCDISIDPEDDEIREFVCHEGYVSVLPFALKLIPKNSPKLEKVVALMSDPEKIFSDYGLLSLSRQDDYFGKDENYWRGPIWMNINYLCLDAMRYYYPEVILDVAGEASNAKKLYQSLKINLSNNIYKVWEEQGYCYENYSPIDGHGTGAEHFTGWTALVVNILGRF
Method: The α-glucosidase I (Baker's yeast) and its substrate (α-D-Glcl→2α-D-Glcl→3α-D-Glc-O(CH2)6 COOCH3) employed herein were prepared in accordance with the method of I. Neverova et al., Anal. Biochem., 222, 190-196 (1994).
The following measurements were performed by the methods described in this literature.
Namely, 25 μl of a buffer solution containing α-glucosidase I was added to a microtube containing the above-mentioned sample and the substrate (α-D-Glcl→2α-D-Glcl→3α-D-Glc-O(CH2)6 COOCH3). After incubating at 37° C. for 1 hour, a 1.25M tris hydrochloride buffer solution (pH 7.6, 25 μl) was added to thereby cease .the reaction. Then the reaction mixture was transferred onto a microplate followed by the addition of 250 μl of a reaction buffer solution [developing solution; 1M tris hydrochloride buffer solution (pH 7.2) containing glucose oxidase (5 units/ml, manufactured by Sigma), horseradish peroxidase (1 purpurogallin units, manufactured by Sigma) and o-dianisidine dihydrochloride (40 μg/ml)]. Then the mixture was incubated at 37° C. for 30 minutes or until an increase in the absorbance attained a plateau. Then the absorbance (A450-650) of the o-dianisidine formed and oxidized by this enzyme reaction was measured. As a blank, the above reaction was repeated but adding neither the above-mentioned sample nor substrate and the absorbance was measured. Also, the above-mentioned reaction buffer solution was added to D-glucose of a known concentration and the resulting mixture was incubated followed by the measurement of the absorbance to thereby examine a relationship between D-glucose concentration and absorbance. Each measurement was effected in two wells at the same time.
Based on the above-mentioned relationship between D-glucose concentration and absorbance, the amount of glucose liberated from the substrate due to the enzyme reaction of α-glucosidase I in the presence of the sample was determined. From the result thus obtained, Km was determined and then Ki was determined from the sample amount and the Km value.

[2] = target: T2, α-Glucosidase (Baker's yeast, EC 3.2.1.20) (Saccharomyces cerevisiae, UniProt P53341); experiment: α-Glucosidase enzyme inhibition assay (p-nitrophenyl α-D-glucopyranoside); conditions: for inhibitory activity against α-glucosidase (in words): compared with deoxynojirimycin, summary of Tables 1 and 2
T2 construct: purchased Sigma; host or cells: Baker's yeast
Method: (§1) By using a 96-well microplate, the absorbance (at 405 nm) of liberated p- or o-nitrophenol was measured with a microplate reader (MPR-4Ai, manufactured by Tosoh Corporation).
(§2) Incubation was carried out at 37° C. by using a natural incubator (Compact NIB-10, manufactured by Iwaki Glass Co., Ltd.).
(§3) The enzymes employed herein [α-glucosidase (Baker's yeast), β-glucosidase (Almonds), α-galactosidase (E. coli), β-galactosidase (E. coli) and β-galactosidase (Bovine Liver)] were all purchased from Sigma.
(§4) The substrates (p- or o-nitrophenylglycoside) of these enzymes were all purchased from Sigma.
1) α-Glucosidase (Baker's yeast, EC 3.2.1.20) [described in H. Halvorson and L. Ellias, Biochim. Biophys. Acta, 30, 28-40 (1958)]
Into each well were introduced an aqueous solution of a sample (1 μl), a 0.66 mM solution of p-nitrophenyl α-D-glucopyranoside in a buffer (98 μl) and a (0.4 mg/ml) enzyme solution in the buffer (1 μl) to give a total volume of 100 μl. After incubating at 37° C. for 30 minutes, the reaction was ceased by adding a 1M aqueous solution of sodium carbonate (100 μl). Then the absorbance (A405) of p-nitrophenol liberated by this enzyme reaction was measured. To give the blank absorbance (Ablank), the sample (1 μl) and the substrate (99 μl) were incubated in the same manner and an aqueous solution of sodium carbonate (100 μl) was added followed by the measurement of the absorbance. […] The sample at each concentration, the blank and the control were treated each in two wells at the same time. As the buffer, a 0.1M phosphate buffer solution (pH 6.8, prepared from KH2 PO4 and K2 HPO4) was employed.

[3] = target: β-Glucosidase (Almonds, EC 3.2.1.21); experiment: β-Glucosidase enzyme inhibition assay (p-nitrophenyl β-D-glucopyranoside); conditions: for IC50: pH 5.0, 37° C., 45 minutes
Method: as §1, §2, §3, §4
2) β-Glucosidase (Almonds, EC 3.2.1.21) [described in A. Kobayashi, Agr. Biol. Chem., 26, 203-207 (1962)]
Into each well were introduced an aqueous solution of a sample (1 μl), a 0.33 mM solution of p-nitrophenyl β-D-glucopyranoside in a buffer (98 μl) and a (0.4 mg/ml) enzyme solution in the buffer (1 μl) to give a total volume of 100 μl. After incubating at 37° C. for 45 minutes, the reaction was ceased by adding a 1M aqueous solution of sodium carbonate (100 μl). Then the absorbance (A405) of p-nitrophenol liberated by this enzyme reaction was measured. To give the blank absorbance (Ablank), the sample (1 μl) and the substrate (99 μl) were incubated in the same manner and an aqueous solution of sodium carbonate (100 μl) was added followed by the measurement of the absorbance. […] As the buffer, a 0.1M acetate buffer solution (pH 5.0, prepared from NaOAc and AcOH) was employed. The IC50 was determined in the same manner as employed in the case of α-glucosidase.

[4] = system: α-Galactosidase (E. Coli, EC. 3.2.1.22); experiment: α-Galactosidase enzyme inhibition assay (p-nitrophenyl α-D-galactopyranoside); conditions: pH 6.5, room temperature, 15 minutes
Method: as §1, §3, §4
3) α-Galactosidase (E. Coli, EC. 3.2.1.22) [described in H. Suzuki, S-C. Li and Y-T. Li, J. Biol. Chem., 245, 781-786 (1970)]
Into each well were introduced an aqueous solution of a sample (1 μl), a buffer (74 μl), a 9.9 mM solution of p-nitrophenyl α-D-galactopyranoside in a buffer (20 μl) and a (50 μg/ml) enzyme solution in the buffer (5 μl) to give a total volume of 100 μl. After incubating the resulting mixture at room temperature (20°-30° C.) for 15 minutes, the reaction was ceased by adding a 0.2M borate buffer solution (pH 9.8, prepared from NaOH and H3 BO3, 100 μl). Then the absorbance (A405) of p-nitrophenol liberated by this enzyme reaction was measured. To give the blank absorbance (Ablank), the sample (1 μl), the substrate (20 μl) and the buffer solution (79 μl) were incubated in the same manner and the 0.2M borate buffer solution (100 μl) was added followed by the measurement of the absorbance. To give the control absorbance ([…]), on the other hand, water (1 μl), the substrate (20 μl), the buffer solution (74 μl) and the enzyme solution (5 μl) were incubated in the same manner and the borate buffer solution (100 μl) was added followed by the measurement of the absorbance. A 0.1M phosphate buffer solution (pH 6.5, prepared from KH2 PO4 and K2 HPO4) was employed as the buffer for the enzyme reaction. The IC50 was determined in the same manner as employed in the case of α-glucosidase.

[5] = target: T3, β-Galactosidase (E. Coli, EC. 3.2.1.23) (Escherichia coli, UniProt P00722); experiment: β-Galactosidase (E. coli) enzyme inhibition assay (o-nitrophenyl β-D-galactopyranoside)
T3 construct: purchased Sigma; host or cells: E. coli
Method: as §1, §3, §4
4) β-Galactosidase (E. Coli, EC. 3.2.1.23) [described in G. R. Craven, E. Steers, Jr. and C. B. Anfinsen, J. Biol. Chem., 240, 2468-2477 (1965)]
Into each well were introduced an aqueous solution of a sample (2 μl), a buffer (153 μl), a 20 mM solution of o-nitrophenyl β-D-galactopyranoside in a buffer (25 μl), a 100 mM 2-mercaptoethanol (10 μl) and a (10 μg/ml) enzyme solution in the buffer (10 μl) to give a total volume of 200 μl. After incubating at room temperature (20°-30° C.) for 30 minutes, the absorbance (A405) of o-nitrophenol liberated by this enzyme reaction was measured. To give the blank absorbance (Ablank), the sample (2 μl), the substrate (25 μl), the buffer solution (163 μl) and 2-mercaptoethanol (10 μl) were incubated in the same manner followed by the measurement of the absorbance. To give the control absorbance (Acontrol), on the other hand, water (2 μl), the substrate (25 μl), the buffer solution (153 μl), 2-mercaptoethanol (10 μl) and the enzyme solution (10 μl) were incubated in the same manner followed by the measurement of the absorbance. A 50 mM phosphate buffer solution (pH 7.3, prepared from KH2 PO4 and K2 HPO4, containing 1.3 mM of MgCl2) was employed as the buffer for the enzyme reaction. The IC50 was determined in the same manner as employed in the case of α-glucosidase.

[6] = pH 6.8, 37° C., 30 minutes, read-out: IC50 (M) α-Glucosidase (Baker's yeast)
[7] = α-glucosidase I, substrate 0.25-4.0 mM, 37° C., 1 hour, read-out: Ki

T2 sequence (P53341 whole entry): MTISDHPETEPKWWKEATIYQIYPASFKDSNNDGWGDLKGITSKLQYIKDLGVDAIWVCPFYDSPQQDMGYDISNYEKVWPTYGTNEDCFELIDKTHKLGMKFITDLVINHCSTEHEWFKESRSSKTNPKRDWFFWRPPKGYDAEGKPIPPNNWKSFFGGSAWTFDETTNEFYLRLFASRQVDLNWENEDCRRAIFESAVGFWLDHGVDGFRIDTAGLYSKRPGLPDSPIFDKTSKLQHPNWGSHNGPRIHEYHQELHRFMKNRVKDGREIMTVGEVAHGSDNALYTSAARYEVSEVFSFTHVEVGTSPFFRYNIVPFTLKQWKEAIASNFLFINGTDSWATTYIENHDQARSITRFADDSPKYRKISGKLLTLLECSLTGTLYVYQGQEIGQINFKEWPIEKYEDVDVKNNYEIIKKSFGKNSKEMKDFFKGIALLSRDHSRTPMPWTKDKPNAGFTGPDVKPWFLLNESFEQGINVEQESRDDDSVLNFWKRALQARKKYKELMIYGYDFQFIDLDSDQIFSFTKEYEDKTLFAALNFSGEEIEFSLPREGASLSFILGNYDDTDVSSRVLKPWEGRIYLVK
T3 sequence (P00722 2-1024 limits assumed): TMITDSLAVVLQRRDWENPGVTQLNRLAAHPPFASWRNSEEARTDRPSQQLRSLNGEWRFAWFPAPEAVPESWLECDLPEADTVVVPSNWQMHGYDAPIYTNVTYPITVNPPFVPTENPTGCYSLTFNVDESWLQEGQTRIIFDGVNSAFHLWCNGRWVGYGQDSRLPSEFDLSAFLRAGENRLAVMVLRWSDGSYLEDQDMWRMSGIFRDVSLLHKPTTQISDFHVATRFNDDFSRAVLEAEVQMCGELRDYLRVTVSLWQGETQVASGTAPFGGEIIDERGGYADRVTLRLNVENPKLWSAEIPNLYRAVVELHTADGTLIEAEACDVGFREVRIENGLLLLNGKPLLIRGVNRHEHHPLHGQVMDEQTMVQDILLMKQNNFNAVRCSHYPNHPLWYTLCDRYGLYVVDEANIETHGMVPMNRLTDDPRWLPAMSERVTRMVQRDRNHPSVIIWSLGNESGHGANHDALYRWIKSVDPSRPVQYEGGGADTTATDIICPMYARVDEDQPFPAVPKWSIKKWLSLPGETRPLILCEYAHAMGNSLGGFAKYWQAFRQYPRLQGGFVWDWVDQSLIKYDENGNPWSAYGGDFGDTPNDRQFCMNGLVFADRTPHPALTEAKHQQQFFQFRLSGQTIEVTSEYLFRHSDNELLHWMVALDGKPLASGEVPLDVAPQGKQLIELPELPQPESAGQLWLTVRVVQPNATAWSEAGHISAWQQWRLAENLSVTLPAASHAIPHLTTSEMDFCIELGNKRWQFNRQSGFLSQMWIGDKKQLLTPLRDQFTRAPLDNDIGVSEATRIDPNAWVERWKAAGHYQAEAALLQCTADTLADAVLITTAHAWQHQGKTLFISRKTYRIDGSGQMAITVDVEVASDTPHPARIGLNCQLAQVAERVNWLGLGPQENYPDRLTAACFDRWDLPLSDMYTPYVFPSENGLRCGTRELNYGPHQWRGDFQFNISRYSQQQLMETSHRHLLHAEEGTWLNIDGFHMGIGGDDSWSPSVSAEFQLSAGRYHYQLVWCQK

| Compound | inhibitory activity against α-glucosidase (in words) [2] | IC50 [2, 6] | IC50 [3] | Ki [1, 7] | also measured |
| --- | --- | --- | --- | --- | --- |
| CCCCN1C[C@H](O)[C@@H](O)[C@H](O)[C@H]1CO [N-B-DNJ, N-butyldeoxynojirimycin, reference compound] | – | – | – | – | Ki [1]: 3.6 µM; IC50 [2]: 8e-05 M |
| CCCCN(CCCC)[C@@H]1[C@H](O)[C@@H](O)[C@H](O)[C@@]1(O)CO [d-1, 1L-(1,2,4,5/3)-5-dibutylamino-1-hydroxymethyl-1,2,3,4-cyclopentanetetraol] | remarkably strong inhibitory activities | 5e-07 M | 130 µM | – | – |
| CCCCNC1=N[C@@H]2[C@H](O)[C@@H](O)[C@H](O)[C@]2(CO)O1 [Compound 2-2L, (1S,5R,6S,7R,8S)-1-hydroxymethyl-3-butylamino-2-oxa-4-azabicyclo[3.3.0]oct-3-ene-6,7,8-triol] | remarkably strong inhibitory activities | – | > 300 µM | 4.2 µM | inhibitory activity against β-glucosidase (in words) ([3]; summary of Table 1): weak inhibitory activities |
| OC[C@]12OC(Nc3ccccc3)=N[C@H]1[C@@H](O)[C@H](O)[C@H]2O [Compound 1-2D, (1R,5S,6R,7S,8R)-1-hydroxymethyl-3-phenylamino-2-oxa-4-azabicyclo[3.3.0]oct-3-ene-6,7,8-triol] | – | 9.99e-07 M | > 300 µM | – | IC50 [4]: > 300 µM; IC50 [5]: > 0.0003 M |
| N[C@@H]1[C@H](O)[C@@H](O)[C@H](O)[C@@]1(O)CO [d, 1L-(1,2,4,5/3)-5-amino-1C-hydroxymethyl-1,2,3,4-cyclopentanetetraol] | remarkably strong inhibitory activities | – | – | 300 µM | IC50 [2]: 4.02e-07 M; IC50 ([5]; pH 7.3, room temperature, 30 minutes, read-out: IC50 (M) β-Galactosidase (E. coli)): > 0.0003 M |
| CCCCN[C@@H]1[C@H](O)[C@@H](O)[C@H](O)[C@@]1(O)CO [d-2, 1L-(1,2,4,5/3)-5-butylamino-1-hydroxymethyl-1,2,3,4-cyclopentanetetraol] | remarkably strong inhibitory activities | 1.7e-08 M | 3 µM | – | – |
| trehasolamine [reference compound] | – | 0.0005 M | 9.9 µM | 1500 µM | – |
